# Source: paper PMC10459044, “Anticholinesterase and Serotoninergic Evaluation of Benzimidazole–Carboxamides as Potential Multifunctional Agents for the Treatment of Alzheimer’s Disease” (Pharmaceutics, 2023)
# Entries after “also recorded” stand apart in the source; their conditions may differ. Like-named read-outs stand apart in the source and are kept apart here.
# What was measured:
# human AChE = biological target: T1, human AChE (Homo sapiens, UniProt P22303); experiment: biochemical; format: biochemical; details: for Type of Inhibition / thermodynamic cooperativity factor α: human AChE; for Type of Inhibition: Lineweaver–Burk plots; for thermodynamic cooperativity factor α: mixed inhibition model
# T1 construct: human erythrocyte AChE (Biomed, Auckland, New Zealand); purchased Biomed, Auckland, New Zealand; host or cells: human erythrocytes (natural source)
# T1 sequence (P22303 32-617 isoform P22303-2 limits assumed): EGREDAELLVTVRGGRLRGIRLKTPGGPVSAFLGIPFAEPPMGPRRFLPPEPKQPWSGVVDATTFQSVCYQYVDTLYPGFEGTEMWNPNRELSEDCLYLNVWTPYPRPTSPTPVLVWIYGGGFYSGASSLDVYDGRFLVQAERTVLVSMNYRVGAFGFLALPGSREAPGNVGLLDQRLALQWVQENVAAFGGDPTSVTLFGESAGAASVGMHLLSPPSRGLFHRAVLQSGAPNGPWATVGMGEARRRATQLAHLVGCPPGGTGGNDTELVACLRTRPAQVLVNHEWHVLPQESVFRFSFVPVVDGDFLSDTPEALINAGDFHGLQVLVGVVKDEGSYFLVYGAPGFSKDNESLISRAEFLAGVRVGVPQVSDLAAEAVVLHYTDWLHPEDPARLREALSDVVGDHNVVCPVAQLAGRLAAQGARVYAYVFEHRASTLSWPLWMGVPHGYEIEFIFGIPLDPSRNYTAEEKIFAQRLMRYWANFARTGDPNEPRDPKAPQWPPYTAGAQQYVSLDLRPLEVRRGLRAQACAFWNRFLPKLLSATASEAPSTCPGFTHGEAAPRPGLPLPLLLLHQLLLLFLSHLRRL
# Experimental: (§1) The biochemical analysis of the inhibitory ability of the drugs against AChE and BChE was performed using a microplate modification of the Ellman method. The following reagents were used: 5,5′-dithio-bis-2-nitrobenzoic acid (DTNB, Sigma-Aldrich, St. Louis, MO, USA), acetylthiocholine (ATCh, Sigma-Aldrich), butyrylthiocholine (BTCh, Sigma-Aldrich), human erythrocyte AChE (Biomed, Auckland, New Zealand), human plasma BChE (Mechnikov Scientific Research Institute of Vaccines and Serums, St. Petersburg, Russia), phosphate-buffered saline (PBS; pH 7.2; Biolot, […]) and distilled water (pH 5.97, Biolot).
# (§2) AChE and BChE were dissolved in PBS to obtain solutions of 1 mg/mL. Due to its high activity, human BChE was used at a 1:30 dilution. Solutions of the studied compounds were prepared with serial dilutions; their concentration in the reaction mixture was in a range from 0 to 300 μM. Double-distilled water, ethanol and dimethyl sulfoxide (DMSO, up to 15% of the total solvent volume) were used as solvents. When using DMSO or ethanol, an additional control was performed to assess the effect of the solvent itself. Protein (AChE of BChE) was incubated for 5 min at 37 °C and then the coloring solution was added, which contained a 2 mM freshly prepared DTNB solution and the substrate (ATCh/BTCh) in the concentration range of 200–800 μM. The kinetics were recorded for 15 min at 37 °C at a wavelength of 405 nm. Activity (μM × min^−1) was calculated using the molar extinction coefficient 0.01415 μmol^−1 × cm^−1: (V/ε × l × v) × (ΔE/Δt), where V is the volume of the analyzed mixture (μL); v is the volume of the enzyme solution (μL); ΔE/Δt is the change in extinction in 1 min; l is the thickness of the absorbing layer (cm); and ε is the coefficient of molar extinction of […]. Each measurement was repeated three times.
# (§3) The type of inhibition was evaluated using Lineweaver–Burk plots. The dissociation constant of the enzyme-inhibitor complex (Ki), the maximum rate (Vmax) and thermodynamic cooperativity factor α were calculated using the Graphpad Prism 8.0 program (GraphPad Software Inc., San Diego, CA, USA) according to the model “enzymatic kinetics-inhibition—type of inhibition”.
# human BChE = biological target: T2, human BChE (Homo sapiens, UniProt P06276); experiment: Inhibition of human plasma BChE, microplate Ellman method; format: biochemical; details: for Type of Inhibition: human BChE, Lineweaver–Burk plots; for Ki: human plasma BChE (1:30 dilution), BTCh substrate, 37 °C
# T2 construct: human plasma BChE (Mechnikov Scientific Research Institute of Vaccines and Serums, St. Petersburg, Russia); purchased Mechnikov Scientific Research Institute of Vaccines and Serums, St. Petersburg, Russia; host or cells: human plasma (natural source)
# T2 sequence (P06276 29-602): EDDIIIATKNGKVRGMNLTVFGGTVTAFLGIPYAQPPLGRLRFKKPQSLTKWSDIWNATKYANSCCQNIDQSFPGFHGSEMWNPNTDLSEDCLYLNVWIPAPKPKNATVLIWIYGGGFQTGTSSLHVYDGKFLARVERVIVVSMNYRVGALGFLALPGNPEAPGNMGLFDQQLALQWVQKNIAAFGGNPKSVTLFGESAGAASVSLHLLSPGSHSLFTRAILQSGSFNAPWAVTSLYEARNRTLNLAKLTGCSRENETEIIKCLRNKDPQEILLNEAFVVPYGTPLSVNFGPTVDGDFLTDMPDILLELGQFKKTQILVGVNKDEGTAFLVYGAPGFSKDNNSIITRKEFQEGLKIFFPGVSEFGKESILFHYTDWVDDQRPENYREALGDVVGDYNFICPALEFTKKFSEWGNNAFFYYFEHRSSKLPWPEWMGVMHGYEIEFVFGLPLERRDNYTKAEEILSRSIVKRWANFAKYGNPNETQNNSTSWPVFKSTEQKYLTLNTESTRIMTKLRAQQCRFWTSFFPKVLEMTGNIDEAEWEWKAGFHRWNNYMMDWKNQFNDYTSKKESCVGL
# Experimental: as §1, §2, §3
# 5-HT4R = details: read-out: EC50 relative to 5-HT4R; cited from earlier work
# [1] = human erythrocyte AChE, ATCh substrate, 37 °C, read-out: Ki
SMILES,Ki (human AChE) [µM],AChE inhibition less effective than compound 24 (ratio of Ki) (human AChE; compound 13 vs compound 24) [times],Type of Inhibition (human AChE),Type of Inhibition (human BChE),Ki (human BChE; read-out: Ki) [µM],thermodynamic cooperativity factor α (human AChE),Ki (human AChE; [1]) [µM],EC50 (5-HT4R) [µM],Ki (human BChE)
"CCN(CC)CCNC(=O)n1c(=O)n(C(C)(C)C)c2ccccc21.Cl [Compound 13, N-[2-(diethylamino)ethyl]-2-oxo-3-(tert-butyl)-2,3-dihydro-1H-benzimidazole-1-carboxamide hydrochloride]",36.1,~300,strictly competitive,non-competitive,1.7,,,,
"CC(C)n1c(=O)n(C(=O)NC2CC3CCC(C2)N3C)c2ccccc21 (stereo not drawn) [Compound 15, reference compound]",,,mixed,competitive,9.7,6.6,127,0.018,
CC(C)n1c(=O)n(C(=O)NC2CC3CCC(C2)N3C)c2cc(C(F)(F)F)ccc21 (stereo not drawn) [Compound 16],,,mixed,competitive,21.3,5.1,31,,
CCN(CC)CCNC(=O)n1c(=O)n(C(C)C)c2ccccc21 [Compound 22],,,strictly competitive,competitive,15.2,,97.1,,
CCN(CC)CCNC(=O)n1c(=O)n(C(C)C)c2ccc(C(F)(F)F)cc21 [Compound 23],,,mixed,non-competitive,4.5,3.1,60.5,,
CC(C)n1c(=O)n(C(=O)N2CCN(C(c3ccccc3)c3ccc(Cl)cc3)CC2)c2ccccc21 (stereo not drawn) [Compound 24],,,non-competitive,no inhibition,,,0.13,,no inhibitory effect; also recorded: did not demonstrate inhibitory properties; also recorded: no inhibition
CCN(CC)CCNC(=O)n1c(=O)n(C2CC2)c2ccccc21 [Compound 27],,,mixed,competitive,16.2,10.9,132,,
CN(C)CCNC(=O)n1c(=O)n(C2CC2)c2ccccc21 [Compound 28],,,mixed,non-competitive,28.1,12.6,138,,
